The text below walks through data of US11180474B2 (BRISTOL-MYERS SQUIBB COMPANY, priority 2016, dated 2021).

By IC50 is commonly meant the concentration that gives 50% inhibition. A lower IC50 goes with inhibition by little substance.

Structures can show the parent of a compound that is named as a salt.

In one experiment the target is T1, human TLR7 (Homo sapiens, UniProt Q9NYK1).
T1 construct: host or cells: HEK-Blue cells
T1 sequence (Q9NYK1 27-1049): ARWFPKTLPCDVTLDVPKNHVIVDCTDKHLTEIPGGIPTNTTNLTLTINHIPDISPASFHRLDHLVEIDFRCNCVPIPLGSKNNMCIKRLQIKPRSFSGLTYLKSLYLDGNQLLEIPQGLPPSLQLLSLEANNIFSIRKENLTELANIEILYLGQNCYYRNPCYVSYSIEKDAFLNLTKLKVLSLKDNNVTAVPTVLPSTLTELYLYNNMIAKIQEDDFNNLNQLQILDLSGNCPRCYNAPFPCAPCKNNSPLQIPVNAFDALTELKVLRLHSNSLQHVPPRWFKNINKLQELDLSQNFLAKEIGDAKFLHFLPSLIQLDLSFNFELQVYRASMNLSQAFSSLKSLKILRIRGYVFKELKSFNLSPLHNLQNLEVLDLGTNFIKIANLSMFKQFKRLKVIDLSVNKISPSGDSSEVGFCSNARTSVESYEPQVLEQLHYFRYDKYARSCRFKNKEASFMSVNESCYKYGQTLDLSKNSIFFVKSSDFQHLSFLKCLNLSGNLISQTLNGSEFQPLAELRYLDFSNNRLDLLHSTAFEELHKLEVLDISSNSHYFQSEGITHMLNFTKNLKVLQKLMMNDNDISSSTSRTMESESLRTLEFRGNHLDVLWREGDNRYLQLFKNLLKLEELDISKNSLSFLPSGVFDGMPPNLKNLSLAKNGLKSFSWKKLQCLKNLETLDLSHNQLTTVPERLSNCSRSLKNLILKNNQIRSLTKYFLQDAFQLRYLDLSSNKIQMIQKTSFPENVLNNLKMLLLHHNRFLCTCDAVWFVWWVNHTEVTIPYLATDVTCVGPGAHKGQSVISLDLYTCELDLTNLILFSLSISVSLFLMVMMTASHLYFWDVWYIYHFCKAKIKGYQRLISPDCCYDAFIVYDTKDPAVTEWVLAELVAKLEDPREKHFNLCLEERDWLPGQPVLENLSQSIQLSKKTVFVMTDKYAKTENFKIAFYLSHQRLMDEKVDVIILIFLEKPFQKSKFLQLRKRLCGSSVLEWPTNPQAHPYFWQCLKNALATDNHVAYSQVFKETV
Nature of the experiment: TLR7 inhibition reporter assay (HEK-Blue cells, SEAP reporter, gardiquimod stimulation). The experiment is classed as cell-based. The note with it: HEK-Blue cells overexpressing human TLR7, gardiquimod 7.5 μM. Put shortly:
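In this cell reporter format, test compounds at 0.05 nM-50 μM final incubate 22 h with seeded cells (TLR7 15000, TLR8 20,000 per well). SEAP read-out by HEK-Blue Detection medium yields % inhibition relative to agonist/DMSO and known-inhibitor wells.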
On the technique in general: A reporter such as luciferase makes a cellular process visible.

The target in the next experiment is T2, human TLR9 (Homo sapiens, UniProt Q9NR96).
T2 construct: host or cells: HEK-Blue cells
T2 sequence (Q9NR96 26-1032): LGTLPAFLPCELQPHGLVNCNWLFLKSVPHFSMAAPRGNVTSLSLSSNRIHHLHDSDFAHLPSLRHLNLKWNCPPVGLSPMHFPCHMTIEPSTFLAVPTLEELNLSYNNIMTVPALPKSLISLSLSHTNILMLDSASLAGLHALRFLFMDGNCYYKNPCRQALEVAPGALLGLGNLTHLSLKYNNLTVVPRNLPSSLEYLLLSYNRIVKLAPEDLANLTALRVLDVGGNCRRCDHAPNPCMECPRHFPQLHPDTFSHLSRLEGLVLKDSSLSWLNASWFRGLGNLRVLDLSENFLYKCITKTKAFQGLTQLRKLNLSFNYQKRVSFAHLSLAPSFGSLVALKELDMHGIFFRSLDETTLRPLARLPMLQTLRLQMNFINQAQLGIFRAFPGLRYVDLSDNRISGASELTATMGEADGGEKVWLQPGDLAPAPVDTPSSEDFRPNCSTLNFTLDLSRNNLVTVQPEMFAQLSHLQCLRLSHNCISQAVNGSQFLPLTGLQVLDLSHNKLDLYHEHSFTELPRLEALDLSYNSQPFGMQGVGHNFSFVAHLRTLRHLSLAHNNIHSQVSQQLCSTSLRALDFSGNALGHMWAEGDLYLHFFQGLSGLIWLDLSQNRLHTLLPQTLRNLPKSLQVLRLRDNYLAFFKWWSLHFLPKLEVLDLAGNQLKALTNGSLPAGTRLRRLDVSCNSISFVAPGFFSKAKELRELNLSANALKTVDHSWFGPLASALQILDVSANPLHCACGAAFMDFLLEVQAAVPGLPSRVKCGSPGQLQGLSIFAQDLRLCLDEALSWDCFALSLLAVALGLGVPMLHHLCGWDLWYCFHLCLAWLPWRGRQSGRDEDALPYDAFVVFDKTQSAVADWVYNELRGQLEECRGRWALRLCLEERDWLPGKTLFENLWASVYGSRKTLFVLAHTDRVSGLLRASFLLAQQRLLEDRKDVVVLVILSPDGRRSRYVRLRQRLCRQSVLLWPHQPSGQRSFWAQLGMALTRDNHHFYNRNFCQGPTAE
The experiment in a line: TLR9 inhibition reporter assay (HEK-Blue cells, SEAP reporter, ODN2006 stimulation). It counts as cell-based. The note with it: HEK-Blue cells overexpressing human TLR9, ODN2006 5 nM. An outline of the steps: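 Dose–response from 0.05 nM to 50 μM was run in HEK-Blue human TLR7, TLR8 and TLR9 reporter cells. After 30 min at room temperature with compound, ligand was added (TLR7 gardiquimod 7.5 μM; TLR8 R848 15.9 μM; TLR9 ODN2006 5 nM) and SEAP measured next day, at 22 h.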

As for `CCc1c(-c2ccc(OC)c(OC)c2)[nH]c2ccc(C3CCN(C(=O)CN4CCCC(C(=O)O)C4)CC3)cc12` (racemic) [Example 176, 1-(2-(4-(2-(3,4-dimethoxyphenyl)-3-ethyl-1H-indol-5-yl)piperidin-1-yl)-2-oxoethyl)piperidine-3-carboxylic acid], the half-inhibitory concentration (IC50) was 8920 nM against human TLR7 and at least 50000 nM on human TLR9.

As for `CCc1c(-c2ccc(OC)c(OC)c2)[nH]c2ccc(C3CCN(C4CCN(Cc5c(C)noc5C)CC4)CC3)cc12` [Example 138, 4-((4-(2-(3,4-dimethoxyphenyl)-3-ethyl-1H-indol-5-yl)-[1,4′-bipiperidin]-1′-yl)methyl)-3,5-dimethylisoxazole], the half-maximal inhibitory concentration (IC50) against human TLR7 turned out to be 3510 nM; on human TLR9, 1400 nM.

`CCc1c(-c2ccc(OC)c(OC)c2)[nH]c2ccc(C3CCN(C4CCN(C(C)C)CC4)CC3)cc12` [Example 151, 2-(3,4-dimethoxyphenyl)-3-ethyl-5-(1′-isopropyl-[1,4′-bipiperidin]-4-yl)-1H-indole]: the half-maximal inhibitory concentration (IC50) was 507 nM against human TLR7 and 556 nM against human TLR9.

For `CCc1c(-c2ccc(OC)c(OC)c2)[nH]c2ccc(C3CCN(C4CCN(Cc5c[nH]cn5)CC4)CC3)cc12` [Example 125, 5-(1′-((1H-imidazol-4-yl)methyl)-[1,4′-bipiperidin]-4-yl)-2-(3,4-dimethoxyphenyl)-3-ethyl-1H-indole], the values for the concentration for half-maximal inhibition (IC50) on human TLR7 and at human TLR9 were 182 nM and 410 nM, respectively.

As to `CCc1c(-c2ccc(OC)c(OC)c2)[nH]c2ccc(C3CCN(C4CCN(Cc5ccc(-c6ccccc6)o5)CC4)CC3)cc12` [Example 143, 2-(3,4-dimethoxyphenyl)-3-ethyl-5-(1′-((5-phenylfuran-2-yl)methyl)-[1,4′-bipiperidin]-4-yl)-1H-indole], the 50% inhibitory concentration (IC50) on human TLR7 stood at 1260 nM; at human TLR9, 730 nM.

Consider `CCc1c(-c2ccc(OC)c(OC)c2)[nH]c2ccc(C3CCN(C4CCN(Cc5ccc(-c6ccccc6)s5)CC4)CC3)cc12` [Example 141, 2-(3,4-dimethoxyphenyl)-3-ethyl-5-(1′-((5-phenylthiophen-2-yl)methyl)-[1,4′-bipiperidin]-4-yl)-1H-indole], for which the IC50 against human TLR7 was 3740 nM; against human TLR9, at least 50000 nM.

For `CCc1c(-c2ccc(OC)c(OC)c2)[nH]c2ccc(C3CCN(C(=O)CN4CCCC(C(=O)N(CC)CC)C4)CC3)cc12` (stereo not shown) [Example 168, 1-(2-(4-(2-(3,4-dimethoxyphenyl)-3-ethyl-1H-indol-5-yl)piperidin-1-yl)-2-oxoethyl)-N,N-diethylpiperidine-3-carboxamide], the IC50 against human TLR7 is 142 nM; on human TLR9 it was 870 nM.

With `COc1ccc(-c2[nH]c3ccc(C4CCN(C5CCNCC5)CC4)cc3c2C(C)C)cc1OC` [Example 197, 5-([1,4′-bipiperidin]-4-yl)-2-(3,4-dimethoxyphenyl)-3-isopropyl-1H-indole dihydrochloride], the 50% inhibitory concentration (IC50) on human TLR7 was found to be 113 nM; against human TLR9, 653 nM.

For the compound `CCN(CC)C(=O)CN(C)CC(=O)N1CCC(c2ccc3[nH]c(-c4ccc(OC)c(OC)c4)c(C(C)C)c3c2)CC1` [Example 203, 2-((2-(4-(2-(3,4-dimethoxyphenyl)-3-isopropyl-1H-indol-5-yl)piperidin-1-yl)-2-oxoethyl)(methyl)amino)-N,N-diethylacetamide, TFA], the IC50 at human TLR7 was found to be 128 nM; against human TLR9, 6660 nM.

Turning to `CCc1c(-c2ccc(OC)c(OC)c2)[nH]c2ccc(C3CCN(C4CCN(Cc5sccc5C)CC4)CC3)cc12` [Example 139, 2-(3,4-dimethoxyphenyl)-3-ethyl-5-(1′-((3-methylthiophen-2-yl)methyl)-[1,4′-bipiperidin]-4-yl)-1H-indole], the IC50 against human TLR7 came to 579 nM; against human TLR9, 444 nM.

Take `CCc1c(-c2ccc(OC)c(OC)c2)[nH]c2ccc(C3CCN(C4CCN(C5CCCC5)CC4)CC3)cc12` [Example 152, 5-(1′-cyclopentyl-[1,4′-bipiperidin]-4-yl)-2-(3,4-dimethoxyphenyl)-3-ethyl-1H-indole]: the IC50 at human TLR7 worked out at 590 nM; on human TLR9, 233 nM.
